Reference: BindingDB's records for doi:10.1038/347146a0 (U. 109, 1990)

Each compound was assayed against D(2) dopamine receptor (Rattus norvegicus, UniProt P61169).
D(2) dopamine receptor, sequence (P61169 whole entry): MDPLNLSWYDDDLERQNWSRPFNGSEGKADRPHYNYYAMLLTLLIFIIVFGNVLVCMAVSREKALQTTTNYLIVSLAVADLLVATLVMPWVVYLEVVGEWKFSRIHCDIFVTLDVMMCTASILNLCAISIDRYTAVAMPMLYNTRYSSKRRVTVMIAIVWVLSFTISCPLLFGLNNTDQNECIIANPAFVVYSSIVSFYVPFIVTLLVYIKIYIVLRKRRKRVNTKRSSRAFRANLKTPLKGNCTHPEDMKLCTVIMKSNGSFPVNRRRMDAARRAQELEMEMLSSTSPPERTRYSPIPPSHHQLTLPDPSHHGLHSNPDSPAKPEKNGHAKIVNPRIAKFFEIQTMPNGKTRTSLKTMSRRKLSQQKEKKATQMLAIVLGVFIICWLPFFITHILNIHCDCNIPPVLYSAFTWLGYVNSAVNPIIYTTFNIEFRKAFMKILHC

Row | Ki [nM] | SMILES
1 | 1700 | Nc1nc2c(ncn2[C@@H]2O[C@H](COP(=O)(O)OP(=O)(O)NP(=O)(O)O)[C@@H](O)[C@H]2O)c(=O)[nH]1 [Guanylyl imidodiphosphate]
2 | 0.61 | CCS(=O)(=O)c1cc(C(=O)NCC2CCCN2CC2CC2)c(OC)cc1I (stereo unspecified) [NSC_122245]

Row | SMILES | Ki [nM]
3 | CCCN(CCC)C1C=Cc2c(OC)cccc2C1C (stereo unspecified) [CAS_5311190] | 40

What follows are compounds tested against D(3) dopamine receptor (Rattus norvegicus, UniProt P19020).
D(3) dopamine receptor, sequence (P19020 whole entry): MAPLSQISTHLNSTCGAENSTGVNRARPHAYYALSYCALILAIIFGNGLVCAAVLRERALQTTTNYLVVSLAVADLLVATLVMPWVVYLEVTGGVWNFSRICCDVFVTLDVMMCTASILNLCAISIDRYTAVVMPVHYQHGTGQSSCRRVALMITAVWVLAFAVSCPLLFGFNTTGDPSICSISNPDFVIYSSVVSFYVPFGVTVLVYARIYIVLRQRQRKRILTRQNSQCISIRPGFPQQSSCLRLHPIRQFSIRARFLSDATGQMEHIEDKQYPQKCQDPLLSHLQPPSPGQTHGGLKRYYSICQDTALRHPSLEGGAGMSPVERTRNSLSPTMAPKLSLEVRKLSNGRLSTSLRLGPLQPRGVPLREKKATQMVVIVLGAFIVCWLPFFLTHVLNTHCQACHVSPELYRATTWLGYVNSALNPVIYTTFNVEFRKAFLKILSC

Row | Ki [nM] | SMILES
4 | 27 | Nc1nc2c(ncn2[C@@H]2O[C@H](COP(=O)(O)OP(=O)(O)NP(=O)(O)O)[C@@H](O)[C@H]2O)c(=O)[nH]1 [Guanylyl imidodiphosphate]
5 | 1.2 | CCS(=O)(=O)c1cc(C(=O)NCC2CCCN2CC2CC2)c(OC)cc1I (stereo unspecified) [NSC_122245]

Row | SMILES | Ki [nM]
6 | CCCN(CCC)C1C=Cc2c(OC)cccc2C1C (stereo unspecified) [CAS_5311190] | 9.2
